Source: patent US20100120775A1, “Farnesoid X Receptor Agonists” (SMITHKLINE BEECHAM CORPORATION, priority 2006, published 2010)

Legend:
[1] = test system: high-fat diet fed obese mice; assay: Effects of FXR agonists on diet induced obese mice; assay type: in vivo, C57BL mice; details: 10, 30, 100 mg/kg twice a day orally; for body fat mass: QMR; for NEFA / cholesterol / glycerol / insulin / triglyceride: serum
Protocol: Methods: Male 20 to 25 g C57BL mice (Charles River, Indianapolis, Ind.) were housed at 72° F. and 50% relative humidity with a 12 h light and dark cycle and fed with standard rodent chow (Purina 5001, Harlan Teklad, Indianapolis, Ind.) or a high-fat diet (TD93075, Harlan Teklad, Indianapolis, Ind.) for eight weeks. After three weeks, mice on high-fat diet were randomized to vehicle or treatment groups based on fasting glucose and body weight. Starting from the fifth week, mice were given either vehicle or the compound in Example 1 (10, 30, and 100 mg/kg) or the compound in Example 5 (10, 30, 100 mg/kg) twice a day orally. Mice on the standard rodent chow were also given vehicle as a control. Body composition was measured using the quantitative magnetic resonance (QMR) method before and at the end of compound treatment. […] Serum chemistry levels were measured using the Instrumentation Laboratory Ilab600TM clinical chemistry analyzer (Instrumentation Laboratory, Boston, Mass.).

[2] = biological target: T1, Human FXRα Ligand Binding Domain (Homo sapiens, UniProt Q96RI1); assay: FXR Cofactor Binding Assay (FXR LBD / SRC-1 peptide, time resolved fluorescence); details: FXRα LBD with biotinylated SRC-1 (LCD2, 676-700) peptide; for EC50: read-out: Activity (pEC50) (converted)
T1 construct: polyhistidine (pRSET-A vector) (N); made in house; host or cells: E. coli BL21 (DE3), pRSET-A vector
T1 sequence (Q96RI1 237-472 isoform Q96RI1-2): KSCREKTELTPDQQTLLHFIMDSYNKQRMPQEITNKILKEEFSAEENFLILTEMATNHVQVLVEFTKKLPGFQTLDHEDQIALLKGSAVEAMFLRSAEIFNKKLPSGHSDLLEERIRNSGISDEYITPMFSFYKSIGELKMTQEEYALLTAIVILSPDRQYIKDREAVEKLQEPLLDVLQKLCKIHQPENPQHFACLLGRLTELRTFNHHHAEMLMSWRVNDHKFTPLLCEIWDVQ
Source text: Determination of a ligand mediated cofactor peptide interaction to quantify ligand binding to the nuclear receptor Farnesoid X Receptor (FXR). The method measures the ability of putative ligands to modulate the interaction between the purified bacterial expressed FXRα ligand binding domain (LBD) and a synthetic biotinylated peptide based on residues 676-700 of steroid receptor coactivator-1 (SRC-1) (LXXLL-containing domain-2 where L is the amino acid leucine and X indicates any other amino acid (LCD2), 676-700). The sequence of the SRC-1 peptide used is as published in Iannone, M. A., et al., 2001 Cytometry 44:326-337 where the N-terminus was biotinylated (B) and the C-terminus was amidated. Detection of the associated complex was measured by time resolved fluorescence (TRF). The purified LBD of FXR was labeled with biotin then mixed with stoichiometric amounts of allophycocyanin (APC) labeled streptavidin (Molecular Probes). The biotinylated peptide was then mixed with a ½ stoichiometric amount of europium labeled streptavidin (Wallac Inc). Each was then blocked with a 5 fold excess of biotin and allowed to equilibrate for 15 min. Equimolar amounts of receptor and peptide were mixed together and were allowed to equilibrate for at least 30 min prior to the addition to either a variable or constant concentrations of the sample for which the affinity is to be determined. After equilibration, the time-resolved fluorescent signal was quantitated using a fluorescent plate reader. The affinity of the test compound was estimated from a plot of fluorescence versus concentration of test compound added.
A basal level of FXR: peptide formation is observed in the absence of added ligand. Ligands that promote the complex formation induce a concentration-dependent increase in time-resolved fluorescent signal. Compounds which bind equally well to both monomeric FXR and to the FXR: peptide complex would be expected to give no change in signal, whereas ligands which bind preferentially to the monomeric receptor would be expected to induce a concentration-dependent decrease in the observed signal.
Human FXRα Ligand Binding Domain (FXRα LBD) was expressed in E. coli strain BL21 (DE3) as an amino-terminal polyhistidine tagged fusion protein. Expression was under the control of an isopropyl-13-D-thiogalactopyranoside (IPTG) inducible T7 promoter. DNA encoding this recombinant protein is subcloned into the pRSET-A expression vector (Invitrogen). The coding sequence of Human FXRα LBD was derived from Genbank accession number U 68233 (amino acids 237 to 472).
Routinely, 30-40 g cell paste (equivalent to 2-3 liters of the fermentation batch) was resuspended in 200-250 mL Tris buffered saline (TBS), pH 7.2 (25 mM Tris-hydroxymethylamino methane (Tris), 150 mM sodium chloride). Cells were lysed by passing 3 times through a French Press and cell debris was removed by centrifugation (30 minutes, 20,000×gravity, 4° C.). The cleared supernatant was filtered through course pre-filters, and TBS, pH 7.2, 500 mM imidazole was added to obtain a final imidazole concentration of 50 mM. This lysate was loaded onto a column (6×8 cm) packed with Sepharose [Ni^|| charged]Chelation resin (Pharmacia) and pre-equilibrated with TBS pH 7.2/50 mM imidazole. After washing to baseline absorbance with equilibration buffer, the column was washed with one column volume of TBS pH 7.2 containing 90 mM imidazole. FXRα LBD was eluted directly with 365 mM imidazole. Column fractions were pooled and dialyzed against TBS, pH 7.2, containing 0.5 mM EDTA and 5 mM DTT. The dialyzed protein sample was concentrated using Centri-prep 10 K (Amicon) and subjected to size exclusion, using a column (3×90 cm) packed with Sepharose S-75 resin (Pharmacia) pre-equilibrated with TBS, pH 7.2, containing 0.5 mM ethylene diamine tetraacetic acid (EDTA) and 5 mM dithiothreitol (DTT). […]

| SMILES | EC50 [2] [nM] | further results |
| --- | --- | --- |
| CC(C)c1onc(-c2c(Cl)cccc2Cl)c1COc1ccc(-c2ccc3cc(C(=O)O)ncc3c2)cc1 [Example 5, 7-[4-({[3-(2,6-Dichlorophenyl)-5-(1-methylethyl)-4-isoxazolyl]methyl}oxy)phenyl]-3-isoquinolinecarboxylic acid] | 102 to 1000 | serum glucose [1]: decreased; body fat mass [1]: decreased; NEFA [1]: decreased; cholesterol [1]: decreased; glycerol [1]: decreased; insulin [1]: decreased; triglyceride [1]: decreased |
| CC(C)c1onc(-c2c(Cl)cccc2Cl)c1COc1ccc(-c2ccc3c(C(=O)O)nccc3c2)cc1 [Example 36, 6-[4-({[3-(2,6-Dichlorophenyl)-5-(1-methylethyl)-4-isoxazolyl]methyl}oxy)phenyl]-1-isoquinolinecarboxylic acid] | 102 to 1000 | – |
| CC(C)c1onc(COc2c(F)cc(F)cc2F)c1COc1ccc(-c2ccc3nc(C(=O)O)ccc3c2)cc1 [Example 19, 6-(4-{[(5-(1-Methylethyl)-3-{[(2,4,6-trifluorophenyl)oxy]methyl}-4-isoxazolyl)methyl]oxy}phenyl)-2-quinolinecarboxylic acid] | 102 to 1000 | – |
| CC(C)c1onc(-c2c(Cl)cccc2Cl)c1CCCOc1ccc(-c2ccc3nc(C(=O)O)ccc3c2)cc1 [Example 15, 6-[4-({3-[3-(2,6-Dichlorophenyl)-5-(1-methylethyl)-4-isoxazolyl]propyl}oxy)phenyl]-2-quinolinecarboxylic acid] | 102 to 1000 | – |
| CC(C)c1onc(-c2c(Cl)cccc2Cl)c1COc1ccc(-c2ccc3c(C(=O)O)ccnc3c2)cc1 [Example 4, 7-[4-({[3-(2,6-Dichlorophenyl)-5-(1-methylethyl)-4-isoxazolyl]methyl}oxy)phenyl]-4-quinolinecarboxylic acid] | 102 to 1000 | – |
| Cc1cc2cc(-c3ccc(OCc4c(-c5c(Cl)cccc5Cl)noc4C(C)C)cc3)ccc2nc1C(=O)O [Example 31, 6-[4-({[3-(2,6-dichlorophenyl)-5-(1-methylethyl)-4-isoxazolyl]methyl}oxy)phenyl]-3-methyl-2-quinolinecarboxylic acid] | 102 to 1000 | – |
| O=C(O)c1ccc2cc(-c3ccc(OCc4c(-c5c(Cl)cncc5Cl)noc4C4CC4)cc3)ccc2n1 [Example 12, 6-[4-({[5-Cyclopropyl-3-(3,5-dichloro-4-pyridinyl)-4-isoxazolyl]methyl}oxy)phenyl]-2-quinolinecarboxylic acid] | 102 to 1000 | – |
| CC(C)c1onc(-c2c(Cl)cncc2Cl)c1COc1ccc(-c2ccc3nc(C(=O)O)ccc3c2)cc1 [Example 25, 6-[4-({[3-(3,5-Dichloro-4-pyridinyl)-5-(1-methylethyl)-4-isoxazolyl]methyl}oxy)phenyl]-2-quinolinecarboxylic acid] | 102 to 1000 | – |
| CC(C)c1onc(C[S+]([O-])c2c(Cl)cccc2Cl)c1COc1ccc(-c2ccc3nc(C(=O)O)ccc3c2)cc1 (centres unmarked) [Example 23, 6-[4-({[3-{[(2,6-Dichlorophenyl)sulfinyl]methyl}-5-(1-methylethyl)-4-isoxazolyl]methyl}oxy)phenyl]-2-quinolinecarboxylic acid] | 102 to 1000 | – |
| CC(C)c1onc(-c2c(Cl)cccc2Cl)c1COc1ccc(-c2ccc3nc(C(=O)O)ccc3c2)cc1 [Example 1i, Sodium 6-[4-({[3-(2,6-dichlorophenyl)-5-(1-methylethyl)-4-isoxazolyl]methyl}oxy)phenyl]-2-quinolinecarboxylate] | – | Activity (pEC50) [2]: ++ (++ indicates a pEC50 6-6.99) |
| CC(C)c1onc(-c2c(Cl)cccc2Cl)c1COc1ccc(-c2ccc3nc(C(=O)O)ccc3c2)cc1 [Example 1, 6-[4-({[3-(2,6-Dichlorophenyl)-5-(1-methylethyl)-4-isoxazolyl]methyl}oxy)phenyl]-2-quinolinecarboxylic Acid] | – | serum glucose [1]: decreased; body fat mass [1]: decreased; NEFA [1]: decreased; cholesterol [1]: decreased; glycerol [1]: decreased; insulin [1]: decreased; triglyceride [1]: decreased |
| O=C(O)c1ccc2cc(-c3ccc(OCc4c(-c5c(Cl)cccc5Cl)noc4C4CCC4)cc3)ccc2n1 [Example 7, 6-[4-({[5-Cyclobutyl-3-(2,6-dichlorophenyl)-4-isoxazolyl]methyl}oxy)phenyl]-2-quinolinecarboxylic acid] | 102 to 1000 | – |
| Cc1nc2ccc(-c3ccc(OCc4c(-c5c(Cl)cccc5Cl)noc4C(C)C)cc3)cc2cc1C(=O)O [Example 35, 6-[4-({[3-(2,6-Dichlorophenyl)-5-(1-methylethyl)-4-isoxazolyl]methyl}oxy)phenyl]-2-methyl-3-quinolinecarboxylic acid] | 102 to 1000 | – |

Further lines, with some results ahead:

| EC50 [2] [nM] | SMILES | further results |
| --- | --- | --- |
| 102 to 1000 | CC(C)c1onc(-c2c(Cl)cccc2Cl)c1COc1ccc(-c2cc3ccc(C(=O)O)nc3cc2F)cc1 [Example 30, 6-[4-({[3-(2,6-Dichlorophenyl)-5-(1-methylethyl)-4-isoxazolyl]methyl}oxy)phenyl]-7-fluoro-2-quinolinecarboxylic acid] | – |
| 102 to 1000 | O=C(O)c1cc2ccc(-c3ccc(OCc4c(-c5c(Cl)cccc5Cl)noc4C4CC4)cc3)cc2cn1 [Example 10, 7-[4-({[5-Cyclopropyl-3-(2,6-dichlorophenyl)-4-isoxazolyl]methyl}oxy)phenyl]-3-isoquinolinecarboxylic acid] | – |
| 102 to 1000 | O=C(O)c1ccc2cc(-c3ccc(OCc4c(-c5c(Cl)cccc5Cl)noc4C4CCCC4)cc3)ccc2n1 [Example 6, 6-[4-({[5-Cyclopentyl-3-(2,6-dichlorophenyl)-4-isoxazolyl]methyl}oxy)phenyl]-2-quinolinecarboxylic acid] | – |
| 1020 to 10000 | CC(C)c1onc(COC2CCCC2)c1COc1ccc(-c2ccc3nc(C(=O)O)ccc3c2)cc1 [Example 27, 6-[4-({[3-[(Cyclopentyloxy)methyl]-5-(1-methylethyl)-4-isoxazolyl]methyl}oxy)phenyl]-2-quinolinecarboxylic acid] | – |
| 102 to 1000 | O=C(O)c1ccc2cc(-c3ccc(OCc4c(-c5c(Cl)cncc5Cl)noc4C4CCC4)cc3)ccc2n1 [Example 8] | – |
| 1020 to 10000 | CC(C)c1onc(CS(=O)(=O)c2c(Cl)cccc2Cl)c1COc1ccc(-c2ccc3nc(C(=O)O)ccc3c2)cc1 [Example 24, 6-[4-({[3-{[(2,6-Dichlorophenyl)sulfonyl]methyl}-5-(1-methylethyl)-4-isoxazolyl]methyl}oxy)phenyl]-2-quinolinecarboxylic acid] | – |
